One data set deals with α7. Particulars: alone and co-applied with an α7 PAM; cited from earlier work.
In data set [1] the target is T1, α7 nAChR (Homo sapiens, UniProt P36544).
T1 construct: expressed in transfected cells; host or cells: Xenopus laevis oocytes (injected RNA)
The data set is described as follows: Inhibition of α7 ACh-evoked responses. Format: cell-based. Here is the method:
Figure 4 Effects sulfonium compounds on α7 ACh-evoked net-charge responses. (A) Effects of the sulfonium compounds at 100 µM co-applied with 60 µM relative to responses to 60 µM ACh applied alone. Data are the averages (±SEM) from seven or eight cells under each condition. (B) Effects of select sulfonium compounds at 1 mM co-applied with 60 µM relative to responses to 60 µM ACh applied alone. Data are the averages (±SEM) from seven or eight cells under each condition. Statistical significance was determined by pairwise t-test with p values corrected for multiple comparisons; * p < 0.05, ** p < 0.001.
The sulfonium compounds that were active with TQS but produced little inhibition of ACh response at a concentration of 100 µM were tested as inhibitors of ACh response at a concentration of 1 mM (Figure 4B).
We tested S8 across a range of concentrations for its ability to inhibit 60 µM ACh responses (Figure 5A). Note that we use 60 µM as an ACh control because this concentration gives nearly maximal (93%) net-charge responses, with the time course of the responses roughly following the speed of solution exchange. […] We tested whether inhibition of α7 responses by S8 was surmountable by increasing ACh concentration, consistent with a competitive mechanism of inhibition. However, since α7 responses to concentrations of ACh greater than 60 µM occur more rapidly than solution exchange in the chamber, we first pre-applied 5 µM S8 prior to the co-application of 5 µM S8 with either 60 µM or 1 mM ACh (Figure 5B). The 60 µM net-charge responses were reduced to 28 ± 2% of controls (n = 8) and 60 µM peak currents to 21 ± 3 % controls. The 1 mM net-charge responses were reduced to 56 ± 6 % of those obtained without S8 co-application, although the S8 co-application increased the peak-current amplitudes compared to 60 µM controls from 1.78 ± 0.15 to 3.72 ± 0.81 (n = 8).
Figure 5 Inhibition of α7 ACh-evoked responses by S8. (A) Concentration-response studies of α7 net-charge responses to 60 µM ACh co-applied with increasing concentrations of S8. To confirm the stability of the ACh responses, applications of ACh plus S8 were alternated with applications of ACh alone. Data are the averages of eight cells (±SEM). See text for curve-fit values. (B) Effects of 5 µM S8 on responses to either 60 µM or 1 mM ACh. The traces shown across the top are the averaged raw data from seven cells, each normalized to the peak current of the first ACh control response shown. In order to assure that the S8 was present at 5 µM throughout the ACh-evoked responses, a 30 s pre-application was made of 5 µM S8 alone. The lower traces show averaged responses to 60 µM or 1 mM ACh alone or with the 5 µM S8 pre- and co-application. The details of the data are described in Methods.
(§1) Experiments were conducted using OpusXpress 6000A (Molecular Devices, Union City, CA, USA). Both the voltage and current electrodes were filled with 3 M KCl. Oocytes were voltage-clamped at −60 mV at room temperature (24 °C). The oocytes were bath-perfused with Ringer’s solution (115 mM NaCl, 2.5 mM KCl, 1.8 mM CaCl2, 10 mM HEPES, and 1 μM atropine, pH 7.2) at 2 mL/min for α7 receptors, or 4 mL/min for heteromeric nAChR. To evaluate the effects of experimental compounds, responses were compared to control ACh-evoked responses, defined as the average of two initial applications of ACh made before test applications. ACh control concentrations were 60 µM for α7 receptors; 100 µM for α4(3)β2(2) and α3β4 receptors; 30 µM for α4β2α6β2β3 and muscle-type (αβ1εδ) receptors; and 10 µM for α4(3)β2(2) and α4(2)β2(2)α5 receptors.
Solutions were applied from 96-well plates via disposable tips. Drug applications were 12 s in duration, followed by 181 s washout periods for α7 receptors, or 6 s in duration followed by 301 s washout periods for heteromeric nAChR. […]

In another data set the target is T2, human α7 receptors (Homo sapiens, UniProt P36544).
T2 construct: expressed in transfected cells; host or cells: Xenopus laevis oocytes (injected RNA)
Details: method as in PMID 12183330. Particulars: 60 µM ACh; cited from earlier work.

For data set [2], the target named is T1, α7 nAChR. The data set is described as follows: α7 responses on co-application with the type II PAM TQS (silent agonism). The format is cell-based. Here is the method: (§2) Compounds were co-applied at a concentration of 100 µM with 30 µM racemic TQS (Figure 3A). All compounds except S4, S5, and S8 gave large responses when co-applied with TQS, consistent with silent agonism of α7 (see Table S1 for ANOVA). Active compounds were also evaluated across a range of concentrations with the alternative PAM, PNU-120596 (Figure 3B). The curve-fit values for Imax (Table 1) should be taken only as approximation of the relative efficacies of the compounds, due to the large variability frequently observed in PNU-120596-potentiated responses, as evidenced by the large SEMs of the responses obtained with high concentrations.
(§3) Figure 3 Responses of α7 nAChR to sulfonium compounds coapplied with PAMs. (A) Potentiation of α7 responses with 30 µM racemic TQS. Shown are the average net-charge responses of seven or eight oocytes ± SEM. (B) Concentration-response studies of peak currents generated by compounds that gave positive responses with TQS, coapplied with 10 µM PNU-120596. Each point represents the average (±SEM) of at least four oocytes.
The human nAChR clones were obtained from Jon Lindstrom (University of Pennsylvania, Philadelphia, PA, USA). Mouse muscle subunit clones were obtained from Jim Boulter (Salk Institute, La Jolla, CA, USA) and Paul Gardner (Dartmouth, Hanover, NH, USA). The human resistance-to-cholinesterase 3 (RIC3) clone was obtained from Millet Treinin (Hebrew University, Jerusalem, Israel) and co-injected with α7 to improve the level and speed of α7 receptor expression without affecting the pharmacological properties of the receptors. Subsequent to linearization and purification of the plasmid DNAs, RNAs were prepared using the mMessage mMachine in vitro RNA transcription kit (Ambion, Austin, TX, USA).
as §1
(§4) Solutions were applied from 96-well plates via disposable tips. Drug applications were 12 s in duration, followed by 181 s washout periods for α7 receptors, or 6 s in duration followed by 301 s washout periods for heteromeric nAChR. The responses were calculated as both peak current amplitudes and net charge, as previously described. Data were collected at 50 Hz, filtered at 20 Hz for α7 receptors or filtered at 5 Hz for heteromeric nAChR, and analyzed by Clampfit (Molecular Devices, San Jose, CA, USA) and Excel (Microsoft, Redmond, WA, USA). Data were expressed as means ± SEM from at least four oocytes for each experiment and plotted with Kaleidagraph 4.5.2 (Abelbeck Software, Reading, PA, USA). Multi-cell averages were calculated for comparisons of complex responses. Averages of the normalized data were calculated for each of the 10,322 points in each of the 206.44 s traces (acquired at 50 Hz), as well as the standard errors for those averages.

In data set [3] the target is T1, α7 nAChR. Briefly: α7 concentration-response on co-application with 10 µM PNU-120596. The format is cell-based. Particulars: peak currents, co-applied with 10 µM PNU-120596, Hill fit. Here is the method: as §2, §3, §1, §4
Another data set concerns the target T3, α3β4 nAChR (Homo sapiens, UniProt P30926+P32297).
T3 construct: expressed in transfected cells; host or cells: Xenopus laevis oocytes (injected RNA)
The data set is described as follows: Inhibition of α3β4 100 µM ACh-evoked peak currents. Format: cell-based. Here is the method:
Although none of the other sulfonium compounds activated neuronal heteromeric receptors, several of them produced inhibition of ACh-evoked responses. Shown in Figure 7A are concentration-response studies for the compounds that were active antagonists of α3β4 nAChR (Table 3). Some compounds were also tested as antagonists of α4β2 subtypes formed with concatamers (Figure 7B).
Figure 7 Inhibition of heteromeric nAChR by sulfonium compounds. (A) Inhibition of α3β4 100 µM ACh-evoked peak currents by the co-application of the sulfonium compounds. Data are the averaged of six to eight oocytes (±SEM). To confirm the stability of the ACh responses, applications of ACh plus the sulfonium compounds were alternated with applications of ACh alone. (B) Inhibition of ACh control peak-current responses of α4-containing nAChR formed with concatamers by 100 µM of the sulfonium compounds indicated. Data are the average of six to eight oocytes (±SEM).
as §1, §4

The subject of another data set is ganglionic (α3β4) nAChR. Details: method as in earlier work. Particulars: 100 µM suplatast; ref 29 (Zhou et al.); cited from earlier work.
On the set-up of data set [4]: method as in PMID 11456386. Particulars: cited from earlier work.
In data set [5] the target is T4, muscle-type (α1β1εδ) receptors (Mus musculus, UniProt P02716+P04756+P20782).
T4 construct: expressed in transfected cells; host or cells: Xenopus laevis oocytes (injected RNA)
The following applies: cited from earlier work.

The conditions of data set [6]: general knowledge, no reference given; cited from earlier work.

Data on five molecules can be found in publication PMC8464850, “Sulfonium Ligands of the α7 nAChR” (Molecules, 2021).

T1 sequence (P36544 23-502): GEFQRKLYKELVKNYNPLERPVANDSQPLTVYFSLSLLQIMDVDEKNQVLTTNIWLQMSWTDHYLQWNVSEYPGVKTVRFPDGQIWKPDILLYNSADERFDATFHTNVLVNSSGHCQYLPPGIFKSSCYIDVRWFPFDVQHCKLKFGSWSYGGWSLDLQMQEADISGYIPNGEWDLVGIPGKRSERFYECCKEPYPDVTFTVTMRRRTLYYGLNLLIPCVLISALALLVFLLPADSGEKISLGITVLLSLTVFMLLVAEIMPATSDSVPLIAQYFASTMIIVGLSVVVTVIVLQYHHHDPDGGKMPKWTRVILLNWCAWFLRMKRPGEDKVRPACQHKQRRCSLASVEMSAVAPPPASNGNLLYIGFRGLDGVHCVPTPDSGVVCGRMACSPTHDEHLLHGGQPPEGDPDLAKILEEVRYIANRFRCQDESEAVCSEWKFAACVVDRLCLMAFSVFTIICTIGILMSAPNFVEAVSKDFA
T3 sequence (P32297 32-505): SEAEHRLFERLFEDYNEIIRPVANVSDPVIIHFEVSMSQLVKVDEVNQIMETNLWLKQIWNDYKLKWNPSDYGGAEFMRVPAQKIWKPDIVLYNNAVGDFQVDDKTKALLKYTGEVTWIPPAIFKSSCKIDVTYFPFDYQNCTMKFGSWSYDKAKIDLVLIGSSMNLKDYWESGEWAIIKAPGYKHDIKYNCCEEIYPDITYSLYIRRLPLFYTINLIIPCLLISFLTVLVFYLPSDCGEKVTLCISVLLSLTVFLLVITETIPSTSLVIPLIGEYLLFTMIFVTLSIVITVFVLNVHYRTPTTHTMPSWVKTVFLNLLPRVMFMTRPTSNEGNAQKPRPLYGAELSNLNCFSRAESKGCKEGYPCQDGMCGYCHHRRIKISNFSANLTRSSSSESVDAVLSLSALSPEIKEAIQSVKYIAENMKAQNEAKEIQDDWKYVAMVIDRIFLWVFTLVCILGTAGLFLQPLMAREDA
T3 sequence (P30926 22-498): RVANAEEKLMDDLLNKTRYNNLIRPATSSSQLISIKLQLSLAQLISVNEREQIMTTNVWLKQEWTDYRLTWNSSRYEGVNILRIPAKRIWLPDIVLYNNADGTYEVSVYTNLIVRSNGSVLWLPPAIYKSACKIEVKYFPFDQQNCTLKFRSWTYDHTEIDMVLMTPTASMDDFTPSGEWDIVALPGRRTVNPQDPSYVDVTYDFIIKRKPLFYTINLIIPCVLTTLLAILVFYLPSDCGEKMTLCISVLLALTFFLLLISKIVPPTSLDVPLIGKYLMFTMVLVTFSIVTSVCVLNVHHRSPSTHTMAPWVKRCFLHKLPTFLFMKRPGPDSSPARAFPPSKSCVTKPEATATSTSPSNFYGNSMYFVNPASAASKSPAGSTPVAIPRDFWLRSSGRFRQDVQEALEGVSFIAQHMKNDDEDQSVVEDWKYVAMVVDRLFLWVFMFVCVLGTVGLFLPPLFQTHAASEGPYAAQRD
T2 sequence (P36544 23-502): as the sequence (P36544 23-502) above
T4 sequence (P04756 21-457): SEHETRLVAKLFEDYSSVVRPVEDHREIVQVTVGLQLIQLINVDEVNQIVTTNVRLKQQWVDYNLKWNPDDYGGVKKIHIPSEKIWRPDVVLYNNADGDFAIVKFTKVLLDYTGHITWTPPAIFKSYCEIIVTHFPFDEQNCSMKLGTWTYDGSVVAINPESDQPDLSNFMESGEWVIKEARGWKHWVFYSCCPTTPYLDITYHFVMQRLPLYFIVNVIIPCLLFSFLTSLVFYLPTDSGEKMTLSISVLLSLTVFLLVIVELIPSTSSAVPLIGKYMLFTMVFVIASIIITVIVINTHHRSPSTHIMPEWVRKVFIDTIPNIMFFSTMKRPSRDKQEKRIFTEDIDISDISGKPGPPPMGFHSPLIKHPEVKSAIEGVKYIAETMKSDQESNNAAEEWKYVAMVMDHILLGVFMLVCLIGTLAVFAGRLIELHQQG
T4 sequence (P09690 24-501 partner): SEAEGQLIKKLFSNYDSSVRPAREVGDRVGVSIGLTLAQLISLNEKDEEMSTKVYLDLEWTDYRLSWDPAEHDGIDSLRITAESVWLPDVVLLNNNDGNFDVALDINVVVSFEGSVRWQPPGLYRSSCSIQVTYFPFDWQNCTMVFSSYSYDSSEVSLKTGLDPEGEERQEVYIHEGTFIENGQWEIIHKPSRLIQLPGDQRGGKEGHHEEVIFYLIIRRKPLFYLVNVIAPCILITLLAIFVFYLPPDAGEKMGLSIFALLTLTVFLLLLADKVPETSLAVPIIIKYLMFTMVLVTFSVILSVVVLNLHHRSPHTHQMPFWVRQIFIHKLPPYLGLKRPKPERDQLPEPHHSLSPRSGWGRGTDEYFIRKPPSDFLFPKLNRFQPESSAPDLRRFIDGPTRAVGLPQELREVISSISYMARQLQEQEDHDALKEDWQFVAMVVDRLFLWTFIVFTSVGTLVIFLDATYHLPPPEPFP
T4 sequence (P20782 21-493): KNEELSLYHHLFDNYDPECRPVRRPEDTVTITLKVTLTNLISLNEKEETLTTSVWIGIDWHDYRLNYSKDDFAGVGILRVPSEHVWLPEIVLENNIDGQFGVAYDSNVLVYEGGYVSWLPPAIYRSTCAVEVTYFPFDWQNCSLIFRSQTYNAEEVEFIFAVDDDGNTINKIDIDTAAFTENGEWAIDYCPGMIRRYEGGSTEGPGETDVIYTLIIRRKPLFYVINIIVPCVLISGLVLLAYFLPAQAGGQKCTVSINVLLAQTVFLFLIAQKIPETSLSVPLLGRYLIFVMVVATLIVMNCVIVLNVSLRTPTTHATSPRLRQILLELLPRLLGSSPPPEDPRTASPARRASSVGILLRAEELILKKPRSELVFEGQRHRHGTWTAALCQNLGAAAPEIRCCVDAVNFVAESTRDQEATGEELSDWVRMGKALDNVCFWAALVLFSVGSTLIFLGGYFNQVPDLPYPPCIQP
T4 sequence (P02716 25-520): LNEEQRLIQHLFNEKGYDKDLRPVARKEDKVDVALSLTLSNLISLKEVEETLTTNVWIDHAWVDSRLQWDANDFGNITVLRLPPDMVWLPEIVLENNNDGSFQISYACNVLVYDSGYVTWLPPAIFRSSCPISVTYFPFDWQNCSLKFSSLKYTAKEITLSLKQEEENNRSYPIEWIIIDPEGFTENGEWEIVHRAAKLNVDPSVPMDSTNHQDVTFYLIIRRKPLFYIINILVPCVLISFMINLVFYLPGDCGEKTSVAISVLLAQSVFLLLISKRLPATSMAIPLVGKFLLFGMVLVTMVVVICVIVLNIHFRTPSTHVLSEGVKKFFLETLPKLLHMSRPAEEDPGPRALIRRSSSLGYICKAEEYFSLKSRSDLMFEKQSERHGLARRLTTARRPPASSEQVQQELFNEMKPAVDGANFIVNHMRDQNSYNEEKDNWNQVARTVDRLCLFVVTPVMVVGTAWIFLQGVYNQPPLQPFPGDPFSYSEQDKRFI

`CC[S+]1CCN(c2ccccc2)CC1.O=S(=O)([O-])C(F)(F)F` [1-ethyl-4-phenylthiomorpholin-1-ium trifluoromethanesulfonate]: in the data set on α7, the “behaviour at α7” value was “inactive when applied alone but active when co-applied with an α7 PAM”.
With `CC(=O)OCC[N+](C)(C)C` [ACh, Acetylcholine chloride, reference compound], the “1 mM ACh peak-current amplitudes compared to 60 µM controls” value at α7 nAChR [1] (1 mM ACh without S8, n = 8) is on record as 1.78 ± 0.15. Further, the “net-charge response as share of maximal” value at human α7 receptors is reported as 93%.
As to `CCOCC(O)COc1ccc(NC(=O)CC[S+](C)C)cc1.Cc1ccc(S(=O)(=O)[O-])cc1` (stereo not drawn) [Compound S6, (3-((4-(3-ethoxy-2-hydroxypropoxy)phenyl)amino)-3-oxopropyl)dimethylsulfonium tosylate, reference compound], at α7 nAChR [2] (100 µM with 30 µM TQS, Figure 3A, listed as suplatast), the “relative activity as α7 silent agonist / desensitizer (rank order)” value is recorded as “most desensitizing”. Also, the “α7 functional classification (silent agonist / inactive)” value at α7 nAChR [2] (inactive alone, active with a PAM = silent agonist) is listed as “silent agonist activity”. Besides, the “IMax (PNU Activation)” value at α7 nAChR [3] (approximation only) is recorded as 2.2 ± 0.3. Also, the EC50 at α7 nAChR [3] (read-out: EC50 (PNU Activation)) was found to be 12.5 ± 4.9 µM. Also, the inhibition at 100 µM at α7 nAChR [1] (compound co-applied at 100 µM, net charge, read-out: inhibition of responses to 60 µM ACh) is ~50%. In addition, the “surmountability of α3β4 inhibition by ACh” value on α3β4 nAChR (5 µM S6, 1 mM ACh vs 30 µM ACh, data not shown) is reported as “not surmountable by increasing ACh concentration”. This molecule also registered an IC50 against α3β4 nAChR (co-application with 100 µM ACh, peak currents) of 4.5 ± 0.6 µM. The “effect on ganglionic (α3β4) nAChR” value in the data set on ganglionic (α3β4) nAChR was “channel block”. Also, in data set [4], the “distribution to the brain” value is on record as “poor” and the oral bioavailability entry is reported as “orally bioavailable”.
Regarding `C[N+](C)(C)C` [TMA, tetramethylammonium ion], the “activation of muscle-type receptors” value in data set [5] is listed as “not an effective activator”.
With `O=[N+]([O-])c1ccc(O)cc1` [para-nitrophenol], the “pKa for the phenolic hydroxyl” value in data set [6] is on record as ~ 7.
